The record followed here is article PMC11910330, “Familial Alzheimer’s disease mutations in amyloid precursor protein impair calcineurin signaling to NMDA receptors” (The Journal of Biological Chemistry, 2024).

For this assay, the system named is GluN1A/GluN2A NMDARs. In words: Whole-cell recording of glutamate-evoked NMDAR currents in HEK 293 cells expressing GluN1A/GluN2A. The class given is cell-based. On the procedure: HEK 293 cells (ATCC Cat# CRL-1573) were obtained at passage 37 and used for a maximum of six passages. Cell cultures were maintained in Dulbecco’s modified Eagle’s medium (DMEM) with 10% fetal bovine serum (Life Technologies, Inc.) and penicillin/streptomycin (P/S). For electrophysiology, cells were plated at low density (∼50,000 cells/ml) on 15-mm round glass coverslips in 12-well plates. Cells were transfected using the Ca^2+ phosphate method with 1 μg of each construct per coverslip. For control cells, 0.3 μg of pEGFP (GenBank U55762.1) was included as a transfection marker. Epifluorescence was used to confirm the expression of the corresponding APP family members and APP FAD mutants. For biochemistry, HEK 293 cells were plated at ∼50% confluence on 10 cm dishes. HEK 293 cells were transfected by the Ca^2+ phosphate method. For these experiments, 4 μg of each construct was used, with 1 μg of mCherry (GenBank AY678264.1) used as a transfection marker. Experiments were performed 24 h after transfection.
Twenty-four hours after transfection, HEK 293 cells were visually selected for recording by GFP epifluorescence. […] whole-cell recordings of NMDA receptor currents were obtained with a Multiclamp 700A amplifier (Molecular Devices) and digitized through a Digidata 1332A using Clampex 10.3 software. Patch pipettes (2–5 MΩ for HEK 293 cells; 3–6 MΩ for neurons) contained (in mM) the following: 140 Cs methanesulfonate, 10 Hepes, five ATP (Na salt), 5 MgCl2, and 0.2 EGTA + 0.01 CaCl2 or 10 BAPTA + 0.2 CaCl2 (pH 7.4). QX-314 (2 mM) was included in the pipette solution for neuronal recordings to ensure the block of voltage-gated Na^+ currents. The extracellular solution contained (in mM) 150 NaCl, 5 KCl, 1.8 CaCl2, 10 Hepes, 11.1 glucose, 0.1 glycine (pH 7.4) and flowed at a rate of 1 to 2 ml/min. For neuronal recordings, this solution was supplemented with tetrodotoxin (0.3 μM), NBQX (10 μM), and picrotoxin (100 μM), to block voltage-gated Na^+ channels, AMPA receptors, and GABA receptors, respectively. HEK cells were lifted from the coverslip after establishment of the whole-cell configuration, to speed solution exchange, and placed ∼20 μm from the mouth of a series of flow pipes, which were controlled by solenoid valves and moved into position by a piezoelectric bimorph. With this configuration, solution exchanges were accomplished within 10 to 12 ms as assessed by the rise time (20–80%) of whole-cell agonist-evoked current responses. Flow pipes were lowered to within ∼50 μm of the surface of the coverslip and placed ∼100 to 150 μm from the soma of the cell. Currents were digitized at 2 kHz and filtered at 1 kHz. Series resistance (90–95% HEK cells; 60–70% neurons) and whole-cell capacitance compensation were employed, and input resistance was routinely monitored by 5 mV hyperpolarizing jumps between agonist applications. Cells showing sudden shifts in these parameters were discarded. Experiments were performed at a holding potential of −60 mV at 20 °C. Currents were elicited by a 3 s (5 s for neurons) application of glutamate (1 mM) in the extracellular recording solution. Desensitization was quantified as the ratio of average current remaining in the last 50 ms of the agonist application to the peak current using Clampfit 10.3 software. […] Current density was calculated by dividing the peak current by the compensated whole-cell capacitance.

`O=C(O)CN(CC(=O)O)c1ccccc1OCCOc1ccccc1N(CC(=O)O)CC(=O)O` [BAPTA]: the “effect on NMDAR current amplitude (in words)” value runs as follows: (10 mM BAPTA in pipette, APP-expressing cells, within 1–3 min) “increase in the amplitude of GluN1A/GluN2A currents”; (10 mM BAPTA in pipette, GFP-expressing cells) “declined in amplitude by a similar extent to that seen with low EGTA concentrations”. The “effect on NMDAR desensitization (in words)” value (10 mM BAPTA in pipette, GFP controls and APP-expressing cells) is listed as “did not appear to modify the degree of NMDAR desensitization”.
For cyclosporin A [CsA], for the setting “CsA 1 μM, GFP-expressing cells, relative to untreated cells”, the “effect on NMDAR desensitization (in words)” value was “desensitization appeared modestly enhanced”. Moreover, the “ss/p ratio in APP-expressing cells (in words)” value (CsA 1 μM, low intracellular EGTA) is on record as “no longer different (and modestly elevated) compared to GFP-expressing cells”.
